According to patent US11845752B2, “Substituted imidazo[1,5-a]pyrazines for the treatment of hepatitis B” (ALIGOS THERAPEUTICS, INC., priority 2020, dated 2023):
Where two headings read alike, the source gives them in different places.

Test system: HBV
Assay: HBV-DNA antiviral assay using HepG2.117 cells (intracellular HBV DNA by qPCR)
Format: cell-based, HBV genotype D
Settings: HBV DNA inhibition, 3 days incubation, read-out: EC50
Summary of the method: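 HepG2.117 cells (stably integrated genotype D HBV, Tet-off) seeded without doxycycline to induce pgRNA, then treated next day with 9 concentrations (4-fold dilutions, 2% DMSO) for 3 days at 37 °C. Intracellular HBV DNA quantified by qPCR against standard curve, viability by ATP content; inhibition relative to DMSO control, EC50/EC90/CC50 by non-linear regression.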

[1] = Hepatitis B virus, HepG2.117, 72 h

Row | SMILES | EC50 [nM] | EC50 [1] [nM]
1 | CC1Cn2c(c(C(=O)NCc3ccccc3-c3ccncn3)n(-c3ccc4oc(N)nc4c3)c2=O)CN1C(=O)c1ccc(Br)c(C(F)(F)F)c1 (single isomer, unassigned) [Compound 93b, (6S*)-2-(2-amino-1,3-benzoxazol-5-yl)-7-[4-bromo-3-(trifluoromethyl)benzoyl]-6-methyl-3-oxo-N-{[2-(pyrimidin-4-yl)phenyl]methyl}-5H,6H,8H-imidazo[1,5-a]pyrazine-1-carboxamide] | 50 to 500 | –
2 | CN[C@H](C)COc1ccc(-n2c(C(=O)NCc3ccccc3-c3ncccn3)c3n(c2=O)C[C@@H](C)N(C(=O)c2ccc(Br)c(C(F)(F)F)c2)C3)cc1 (single isomer, unassigned) [Compound 95a] | – | 50 to 500
3 | C[C@H](COc1ccc(-n2c(C(=O)NCc3ccccc3-c3ncccn3)c3n(c2=O)C[C@@H](C)N(C(=O)c2ccc(Br)c(C(F)(F)F)c2)C3)cc1)N1CCOCC1 (single isomer, unassigned) [Compound 96a] | – | < 50
4 | C[C@H](COc1ccc(-n2c(C(=O)NCc3ccccc3-c3ncccn3)c3n(c2=O)C[C@@H](C)N(C(=O)c2ccc(Br)c(C(F)(F)F)c2)C3)cc1)N(C)C (single isomer, unassigned) [Compound 97a] | – | 50 to 500
5 | C[C@H](COc1ccc(-n2c(C(=O)NCc3ccccc3-c3ncccn3)c3n(c2=O)C[C@H](C)N(C(=O)c2ccc(Br)c(C(F)(F)F)c2)C3)cc1)N(C)C (single isomer, unassigned) [Compound 97b] | – | < 50
6 | CC1Cn2c(c(C(=O)NCc3ccccc3-c3nccc(C(F)(F)F)n3)n(-c3ccc(N4CC5(CN(C)C5)C4)cc3)c2=O)CN1C(=O)c1ccc(Br)c(C(F)(F)F)c1 (single isomer, unassigned) [Compound 98a] | 50 to 500 | –
7 | CC1Cn2c(c(C(=O)NCc3ccccc3-c3nccc(C(F)(F)F)n3)n(-c3ccc(N4CC5(CN(C)C5)C4)cc3)c2=O)CN1C(=O)c1ccc(Br)c(C(F)(F)F)c1 (single isomer, unassigned) [Compound 98b] | 500 to 5000 | –
8 | CC1Cn2c(c(C(=O)NCc3ccccc3-c3ccn(CC(F)(F)F)n3)n(-c3ccc(N4CC5(CN(C)C5)C4)cc3)c2=O)CN1C(=O)c1ccc(Br)c(C(F)(F)F)c1 (single isomer, unassigned) [Compound 99a] | – | 50 to 500
9 | CC1Cn2c(c(C(=O)NCc3ccccc3-c3ccn(CC(F)(F)F)n3)n(-c3ccc(N4CC5(CN(C)C5)C4)cc3)c2=O)CN1C(=O)c1ccc(Br)c(C(F)(F)F)c1 (single isomer, unassigned) [Compound 99b] | 50 to 500 | –
10 | CC1Cn2c(c(C(=O)NCc3ccccc3-c3ncccn3)n(-c3ccc4c(cnn4CC(F)(F)F)c3)c2=O)CN1C(=O)c1ccc(Br)c(C(F)(F)F)c1 (single isomer, unassigned) [Compound 100a] | – | < 50
11 | CC1Cn2c(c(C(=O)NCc3ccccc3-c3ncccn3)n(-c3ccc4c(cnn4CC(F)(F)F)c3)c2=O)CN1C(=O)c1ccc(Br)c(C(F)(F)F)c1 (single isomer, unassigned) [Compound 100b] | < 50 | –
12 | CC1Cn2c(c(C(=O)NCc3ccccc3-c3ncccn3)n(-c3ccc4c(cnn4C[C@@H](O)C(F)(F)F)c3)c2=O)CN1C(=O)c1ccc(Br)c(C(F)(F)F)c1 (single isomer, unassigned) [Compound 101a] | – | 50 to 500
13 | CC1Cn2c(c(C(=O)NCc3ccccc3-c3ncccn3)n(-c3ccc4c(c3)nnn4CC(F)(F)F)c2=O)CN1C(=O)c1ccc(Br)c(C(F)(F)F)c1 (single isomer, unassigned) [Compound 103a] | – | 50 to 500
14 | CC1Cn2c(c(C(=O)NCc3ccccc3-c3ncccn3)n(-c3ccc4c(c3)nnn4CC(F)(F)F)c2=O)CN1C(=O)c1ccc(Br)c(C(F)(F)F)c1 (single isomer, unassigned) [Compound 103b] | < 50 | –
15 | CC1Cn2c(c(C(=O)NCc3c(F)cccc3Cl)n(-c3ccc4c(cnn4CC(F)(F)F)c3)c2=O)CN1C(=O)c1ccc(Br)c(C(F)(F)F)c1 (single isomer, unassigned) [Compound 104a] | – | < 50
16 | CC1Cn2c(c(C(=O)NCc3c(F)cccc3Cl)n(-c3ccc4c(cnn4CC(F)(F)F)c3)c2=O)CN1C(=O)c1ccc(Br)c(C(F)(F)F)c1 (single isomer, unassigned) [Compound 104b] | 50 to 500 | –
17 | CC1Cn2c(c(C(=O)NCc3ccccc3-c3ncccn3)n(-c3ccc4nn(C[C@@H](O)C(F)(F)F)cc4c3)c2=O)CN1C(=O)c1ccc(Br)c(C(F)(F)F)c1 (single isomer, unassigned) [Compound 105a] | – | < 50
18 | CC1Cn2c(c(C(=O)NCc3c(F)cccc3Cl)n(-c3ccc(N4CC5(CN(C)C5)C4)cc3)c2=O)CN1C(=O)c1ccc(Br)c(C(F)(F)F)c1 (single isomer, unassigned) [Compound 106a] | – | 50 to 500
19 | CC1Cn2c(c(C(=O)NCc3c(F)cccc3Cl)n(-c3ccc(N4CC5(CN(C)C5)C4)cc3)c2=O)CN1C(=O)c1ccc(Br)c(C(F)(F)F)c1 (single isomer, unassigned) [Compound 106b] | 50 to 500 | –
20 | CC1Cn2c(c(C(=O)NCc3ccccc3-c3ncccn3)n(-c3ccc4oncc4c3)c2=O)CN1C(=O)c1ccc(Br)c(C(F)(F)F)c1 (single isomer, unassigned) [Compound 108a] | – | 500 to 5000
21 | CC1Cn2c(c(C(=O)NCc3ccccc3-c3ncccn3)n(-c3ccc4oncc4c3)c2=O)CN1C(=O)c1ccc(Br)c(C(F)(F)F)c1 (single isomer, unassigned) [Compound 108b] | 500 to 5000 | –
22 | CC1Cn2c(c(C(=O)NCc3ccccc3-c3ncccn3)n(-c3ccc4c(cnn4C4CNC4)c3)c2=O)CN1C(=O)c1ccc(Br)c(C(F)(F)F)c1 (single isomer, unassigned) [Compound 109a] | – | 500 to 5000
23 | CC1Cn2c(c(C(=O)NCc3ccccc3-c3ncccn3)n(-c3ccc4c(cnn4C4CNC4)c3)c2=O)CN1C(=O)c1ccc(Br)c(C(F)(F)F)c1 (single isomer, unassigned) [Compound 109b] | 500 to 5000 | –
24 | CC1Cn2c(c(C(=O)NCc3ccccc3-n3ccc(C(F)(F)F)n3)n(-c3ccc(N4CC5(CN(C)C5)C4)cc3)c2=O)CN1C(=O)c1ccc(Br)c(C(F)(F)F)c1 (single isomer, unassigned) [Compound 110a] | – | 50 to 500
25 | CC1Cn2c(c(C(=O)NCc3ccccc3-n3ccc(C(F)(F)F)n3)n(-c3ccc(N4CC5(CN(C)C5)C4)cc3)c2=O)CN1C(=O)c1ccc(Br)c(C(F)(F)F)c1 (single isomer, unassigned) [Compound 110b] | 50 to 500 | –
26 | CC1Cn2c(c(C(=O)NCc3ccccc3-c3nnco3)n(-c3ccc(N4CC5(CN(C)C5)C4)cc3)c2=O)CN1C(=O)c1ccc(Br)c(C(F)(F)F)c1 (single isomer, unassigned) [Compound 112a] | – | 500 to 5000
27 | CC1Cn2c(c(C(=O)NCc3ccccc3-c3nnco3)n(-c3ccc(N4CC5(CN(C)C5)C4)cc3)c2=O)CN1C(=O)c1ccc(Br)c(C(F)(F)F)c1 (single isomer, unassigned) [Compound 112b] | 500 to 5000 | –
28 | CC1(O)CCN(c2ccc(-n3c(C(=O)NCc4ccccc4)c4n(c3=O)CCN(C(=O)c3ccc(Br)c(Cl)c3)C4)cc2)C1 (single isomer, unassigned) [Compound 115a] | – | 50 to 500
29 | CC1(O)CCN(c2ccc(-n3c(C(=O)NCc4ccccc4)c4n(c3=O)CCN(C(=O)c3ccc(Br)c(Cl)c3)C4)cc2)C1 (single isomer, unassigned) [Compound 115b] | 50 to 500 | –
30 | O=C(NCc1ccccc1)c1c2n(c(=O)n1-c1ccc(N3CC4CC[C@H]3CO4)cc1)CCN(C(=O)c1ccc(Br)c(Cl)c1)C2 (single isomer, unassigned) [Compound 125a] | – | 50 to 500
